Data on 14 molecules can be found in patent publication US10526337B2, “Heteroaryl derivative or pharmaceutically acceptable salt thereof, preparation method therefor, and pharmaceutical composition for preventing or treating diseases associated with PI3 kinases, containing same as active ingredient” (KOREA RESEARCH INSTITUTE OF CHEMICAL TECHNOLOGY, priority 2015, dated 2020).

Settings in all cases: ATP=10 uM, sample concentration=100 nM
The target in assay [1] is T1, PI3 Kinase (p120γ) (h) (Homo sapiens, UniProt P48736).
T1 construct: endogenous in cells; host or cells: RAW264.7
T1 sequence (P48736 whole entry): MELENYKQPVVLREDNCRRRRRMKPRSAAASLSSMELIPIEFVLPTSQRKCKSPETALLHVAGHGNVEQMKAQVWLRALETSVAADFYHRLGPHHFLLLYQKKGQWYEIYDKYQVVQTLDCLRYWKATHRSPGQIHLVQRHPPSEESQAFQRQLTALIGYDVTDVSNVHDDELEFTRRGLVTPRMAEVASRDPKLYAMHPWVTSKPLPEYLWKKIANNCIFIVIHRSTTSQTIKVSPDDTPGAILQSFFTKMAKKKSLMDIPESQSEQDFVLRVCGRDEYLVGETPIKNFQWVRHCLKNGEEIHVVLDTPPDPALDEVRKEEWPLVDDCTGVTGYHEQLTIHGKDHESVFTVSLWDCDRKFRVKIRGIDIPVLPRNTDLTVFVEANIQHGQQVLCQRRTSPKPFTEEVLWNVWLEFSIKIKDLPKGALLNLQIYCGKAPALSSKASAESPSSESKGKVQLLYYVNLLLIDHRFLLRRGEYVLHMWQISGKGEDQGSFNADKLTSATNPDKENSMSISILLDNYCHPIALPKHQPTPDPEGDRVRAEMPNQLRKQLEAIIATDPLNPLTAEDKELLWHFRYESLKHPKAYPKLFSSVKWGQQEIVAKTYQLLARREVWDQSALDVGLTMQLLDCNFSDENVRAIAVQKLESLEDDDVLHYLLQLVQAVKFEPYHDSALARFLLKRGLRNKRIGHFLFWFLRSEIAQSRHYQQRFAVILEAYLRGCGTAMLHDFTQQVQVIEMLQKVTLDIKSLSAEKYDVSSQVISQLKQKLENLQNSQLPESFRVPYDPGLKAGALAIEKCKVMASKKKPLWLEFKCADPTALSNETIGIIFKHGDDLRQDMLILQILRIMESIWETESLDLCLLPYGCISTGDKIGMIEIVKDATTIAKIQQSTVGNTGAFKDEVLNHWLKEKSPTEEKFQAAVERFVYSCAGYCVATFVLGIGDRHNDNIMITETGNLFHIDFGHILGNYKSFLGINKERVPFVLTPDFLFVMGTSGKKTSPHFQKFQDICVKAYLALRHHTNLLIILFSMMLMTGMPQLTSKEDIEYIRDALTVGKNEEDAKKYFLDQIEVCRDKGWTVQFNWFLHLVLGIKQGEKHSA
Put plainly: Inhibition of phosphatidylinositol 3-kinase gamma (PI3K γ), pAkt Western blotting in C5a-stimulated RAW264.7 macrophages. The class given is cell-based, mouse. In a few lines:
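Enzyme: PI3Kγ activity measured at ATP=10 uM with compound at 100 nM. Cellular: RAW264.7 macrophages treated with compound 1.5 h, then stimulated with 10 ng/mL C5a for 5 min; lysates (10 μg protein) probed by Western blot for pAkt (Ser473 or Thr308), ECL detection.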

Assay [2] has as its target T2, PI3 Kinase (p110α/p85α) (h) (Homo sapiens, UniProt P42336).
T2 construct: endogenous in cells; host or cells: MDA-MB-453
Briefly: Inhibition of phosphatidylinositol 3-kinase alpha (PI3K α), pAkt Western blotting in EGF-stimulated MDA-MB-453 cells. In kind it is cell-based. How it is done: The inhibition of phosphatidylinositol 3 kinase alpha (PI3K α) by those compounds prepared in Examples 1˜98 was investigated by the following experiment. The inhibition activity of each compound was measured in the following conditions: ATP=10 uM, and sample concentration=100 nM.
Human breast cancer cells (MDA-MB-453) cultured in DMEM (Dulbecco's Modified Eagle Medium, Hyclon, SH30243.01) supplemented with 10% fetal bovine serum (Hyclon, USA) were distributed in a 12-well plate at the density of 1,000,000 cells/well. The cells were stabilized in a 37° C. CO2 for 24 hours and then treated with each compound for 1 and half hours. The cells were treated with 10 ng/mL of EGF (Epidermal Growth Factor, 10 μg/mL; R&D, 2150-C5) to increase the intracellular activity of PI3K alpha. 5 minutes later, the medium was discarded and the cells were washed with cold PBS (phosphate buffered saline, Gibco, 14190-250). PBS was then eliminated completely by using a pipette. Western blotting was performed as described in step 2 to evaluate the intracellular PI3K alpha activity.
(§1) The stimulated cells were transferred in a 1.5 mL tube, followed by centrifugation at 3000 rpm for 1 minute. 100 μL of RIPA buffer (radioimmunoprecipitation assay buffer, 50 mM Tris-HCl, 5 mM EDTA, 150 mM NaCl, 1% NP-40, 1 mM PMSF, pH 8.0; ELPIS, Korea) was added thereto, which was stored in a 4° C. refrigerator for 12 hours. Centrifugation was performed at 4° C. at 14,000 rpm for 20 minutes. The supernatant was transferred into a new 1.5 mL tube. Protein was quantified by BCA (bicinchoninic acid) method and samples were prepared. The composition of the sample was as follows: sample buffer (ELPIS, EBA-1052) 5×, protein 10 μg, and 1× sample buffer to make the total volume 20 μL. The sample was heated at 100° C. for 5 minutes. The evaporated water vapor was condensed in a refrigerator. The liquid stained on the wall was fallen down by centrifugation for a few seconds. The sample proceeded to 10% SDS (Sodium Dodecyl Sulfate) acrylamide gel for separation. The separated protein was transferred onto PVDF (poly-vinyl difluoride) membrane, followed by reaction with pAkt (phospho protein kinase B) antibody (Ser473 or Thr308; Cell signaling, 9271s or 13038s) for 12 hours at 4° C. The membrane was washed with TBST (Tris-Buffered Saline with Tween 20, 10 mM Tris-HCl, pH 7.5, 150 mM NaCl, 0.1% Tween-20) three times for 5 minutes each, to which the secondary antibody (rabbit antibody, Santacruz, sc-2004) was added, followed by reaction at room temperature for 2 hours. The membrane was washed with TBST three times for 10 minutes each, to which ECL (enhanced chemiluminescence, Thermo, NCI34095KR) was sprayed. Bands were investigated by using LAS-3000.

Assay [3] addresses T3, PI3 Kinase (p110δ/p85α) (h) (Homo sapiens, UniProt O00329).
T3 construct: endogenous in cells; host or cells: Raji
Briefly: Inhibition of phosphatidylinositol 3-kinase delta (PI3K δ), pAkt Western blotting in IgM-stimulated Raji cells. The class given is cell-based. In a few lines: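 Raji cells were treated with compound for 1.5 h, then stimulated with 0.25 μg/mL IgM for 30 min to activate PI3Kδ. Lysates were Western blotted for pAkt (Ser473 or Thr308) with ECL detection. Conditions stated: ATP=10 uM, sample concentration=100 nM.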

Assay [4] addresses T4, PI3 Kinase (p110β/p86α) (h) (Homo sapiens, UniProt P42338).
T4 construct: endogenous in cells; host or cells: PC3
Put plainly: Inhibition of phosphatidylinositol 3-kinase beta (PI3K β), pAkt Western blotting in LPA-stimulated PC3 cells. In kind it is cell-based. How it is done:
as §1
The inhibition of phosphatidylinositol 3 kinase beta (PI3K β) by those compounds prepared in Examples 1˜98 was investigated by the following experiment. The inhibition activity of each compound was measured in the following conditions: ATP=10 uM, and sample concentration=100 nM.
Human prostate cancer cells (PC3 cells) cultured in DMEM (Dulbecco's Modified Eagle Medium, Hyclon, SH30243.01) supplemented with 10% fetal bovine serum (Hyclon, USA) were distributed in a 12-well plate at the density of 1,000,000 cells/well. The cells were stabilized in a 37° C. CO2 for 24 hours and then treated with each compound for 1 and half hours. The cells were treated with 10 ng/mL of LPA (lysophosphatidic acid, 10 μg/mL; R&D, 2150-05) to increase the intracellular activity of PI3K beta. 5 minutes later, the medium was discarded and the cells were washed with cold PBS (phosphate buffered saline, Gibco, 14190-250). PBS was then eliminated completely by using a pipette. Western blotting was performed according to the same manner as described in step 2 of Experimental Example 1 to evaluate the intracellular PI3K beta activity.

T2 sequence (P42336 whole entry): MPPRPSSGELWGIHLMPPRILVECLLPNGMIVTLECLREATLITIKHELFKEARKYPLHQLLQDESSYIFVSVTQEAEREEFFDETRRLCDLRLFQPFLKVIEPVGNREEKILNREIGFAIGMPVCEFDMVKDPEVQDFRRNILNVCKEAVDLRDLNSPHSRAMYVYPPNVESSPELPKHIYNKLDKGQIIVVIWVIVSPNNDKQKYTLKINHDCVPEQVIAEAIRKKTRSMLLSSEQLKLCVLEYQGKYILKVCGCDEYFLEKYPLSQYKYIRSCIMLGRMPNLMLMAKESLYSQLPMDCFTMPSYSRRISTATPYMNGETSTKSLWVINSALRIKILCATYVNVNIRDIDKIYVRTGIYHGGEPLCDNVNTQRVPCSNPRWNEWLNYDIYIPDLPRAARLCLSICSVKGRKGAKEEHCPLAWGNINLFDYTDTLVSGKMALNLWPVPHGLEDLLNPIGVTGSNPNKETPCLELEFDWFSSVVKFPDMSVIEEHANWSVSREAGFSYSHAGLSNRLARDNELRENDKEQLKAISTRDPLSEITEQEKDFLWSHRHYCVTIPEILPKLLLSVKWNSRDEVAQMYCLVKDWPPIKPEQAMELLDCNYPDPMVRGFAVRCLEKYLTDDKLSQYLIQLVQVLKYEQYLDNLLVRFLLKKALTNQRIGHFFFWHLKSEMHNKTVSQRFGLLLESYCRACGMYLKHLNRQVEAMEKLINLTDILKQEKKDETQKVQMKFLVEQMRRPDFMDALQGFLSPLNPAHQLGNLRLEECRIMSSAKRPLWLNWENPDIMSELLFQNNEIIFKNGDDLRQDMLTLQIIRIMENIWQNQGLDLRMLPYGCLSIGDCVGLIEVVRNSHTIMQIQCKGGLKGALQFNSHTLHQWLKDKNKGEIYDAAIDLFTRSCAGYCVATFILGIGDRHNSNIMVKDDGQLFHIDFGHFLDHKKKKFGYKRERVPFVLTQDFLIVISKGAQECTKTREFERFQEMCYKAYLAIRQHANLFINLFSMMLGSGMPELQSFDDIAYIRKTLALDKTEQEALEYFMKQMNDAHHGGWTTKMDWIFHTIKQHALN
T2 sequence (P27986 2-724 partner limits assumed): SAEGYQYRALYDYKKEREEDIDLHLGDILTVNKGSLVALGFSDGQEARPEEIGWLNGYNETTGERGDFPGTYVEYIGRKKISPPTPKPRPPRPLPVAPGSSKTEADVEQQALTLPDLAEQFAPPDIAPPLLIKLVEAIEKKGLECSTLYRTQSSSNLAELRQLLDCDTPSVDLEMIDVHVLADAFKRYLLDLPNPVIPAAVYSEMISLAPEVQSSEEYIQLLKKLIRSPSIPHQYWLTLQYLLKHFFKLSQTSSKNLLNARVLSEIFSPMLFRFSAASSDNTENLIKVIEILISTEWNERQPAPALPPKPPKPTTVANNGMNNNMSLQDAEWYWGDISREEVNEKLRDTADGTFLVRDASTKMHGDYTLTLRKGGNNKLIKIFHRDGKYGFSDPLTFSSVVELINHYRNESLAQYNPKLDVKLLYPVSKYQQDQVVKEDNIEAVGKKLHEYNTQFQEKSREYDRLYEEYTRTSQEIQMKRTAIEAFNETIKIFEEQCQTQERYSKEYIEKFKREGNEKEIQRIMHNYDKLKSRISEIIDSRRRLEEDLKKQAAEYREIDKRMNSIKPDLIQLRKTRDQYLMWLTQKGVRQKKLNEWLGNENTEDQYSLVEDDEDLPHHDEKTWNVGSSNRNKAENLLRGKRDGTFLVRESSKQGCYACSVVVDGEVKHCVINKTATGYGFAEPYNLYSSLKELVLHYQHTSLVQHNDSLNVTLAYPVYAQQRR
T4 sequence (P42338 whole entry): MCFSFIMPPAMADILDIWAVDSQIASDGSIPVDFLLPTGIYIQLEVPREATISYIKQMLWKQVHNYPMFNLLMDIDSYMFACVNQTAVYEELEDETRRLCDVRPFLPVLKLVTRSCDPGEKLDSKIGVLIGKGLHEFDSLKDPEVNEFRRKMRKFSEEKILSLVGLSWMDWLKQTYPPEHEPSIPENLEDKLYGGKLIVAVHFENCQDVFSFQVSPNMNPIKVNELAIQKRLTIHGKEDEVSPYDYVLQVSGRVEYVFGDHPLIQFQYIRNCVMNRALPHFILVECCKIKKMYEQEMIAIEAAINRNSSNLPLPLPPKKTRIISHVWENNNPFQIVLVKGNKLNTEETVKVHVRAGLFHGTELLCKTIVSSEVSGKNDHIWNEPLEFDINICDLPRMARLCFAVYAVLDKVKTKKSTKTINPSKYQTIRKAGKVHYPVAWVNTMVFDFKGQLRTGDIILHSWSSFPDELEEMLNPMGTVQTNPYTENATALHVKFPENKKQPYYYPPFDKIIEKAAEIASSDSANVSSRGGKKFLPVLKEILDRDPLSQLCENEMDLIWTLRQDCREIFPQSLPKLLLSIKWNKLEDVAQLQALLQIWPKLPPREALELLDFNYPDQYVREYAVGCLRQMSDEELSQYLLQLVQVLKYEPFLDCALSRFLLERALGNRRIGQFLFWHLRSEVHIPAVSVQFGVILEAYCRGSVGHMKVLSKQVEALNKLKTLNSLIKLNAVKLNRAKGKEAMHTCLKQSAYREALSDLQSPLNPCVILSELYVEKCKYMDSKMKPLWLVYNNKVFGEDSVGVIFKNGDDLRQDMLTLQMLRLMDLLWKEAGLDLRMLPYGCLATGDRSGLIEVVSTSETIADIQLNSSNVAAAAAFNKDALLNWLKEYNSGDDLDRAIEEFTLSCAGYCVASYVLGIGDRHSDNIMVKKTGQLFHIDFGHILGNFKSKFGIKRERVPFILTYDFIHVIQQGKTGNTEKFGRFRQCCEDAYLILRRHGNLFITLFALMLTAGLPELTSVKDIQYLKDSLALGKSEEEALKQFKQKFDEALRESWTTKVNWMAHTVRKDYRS
T4 sequence (P27986 whole entry partner): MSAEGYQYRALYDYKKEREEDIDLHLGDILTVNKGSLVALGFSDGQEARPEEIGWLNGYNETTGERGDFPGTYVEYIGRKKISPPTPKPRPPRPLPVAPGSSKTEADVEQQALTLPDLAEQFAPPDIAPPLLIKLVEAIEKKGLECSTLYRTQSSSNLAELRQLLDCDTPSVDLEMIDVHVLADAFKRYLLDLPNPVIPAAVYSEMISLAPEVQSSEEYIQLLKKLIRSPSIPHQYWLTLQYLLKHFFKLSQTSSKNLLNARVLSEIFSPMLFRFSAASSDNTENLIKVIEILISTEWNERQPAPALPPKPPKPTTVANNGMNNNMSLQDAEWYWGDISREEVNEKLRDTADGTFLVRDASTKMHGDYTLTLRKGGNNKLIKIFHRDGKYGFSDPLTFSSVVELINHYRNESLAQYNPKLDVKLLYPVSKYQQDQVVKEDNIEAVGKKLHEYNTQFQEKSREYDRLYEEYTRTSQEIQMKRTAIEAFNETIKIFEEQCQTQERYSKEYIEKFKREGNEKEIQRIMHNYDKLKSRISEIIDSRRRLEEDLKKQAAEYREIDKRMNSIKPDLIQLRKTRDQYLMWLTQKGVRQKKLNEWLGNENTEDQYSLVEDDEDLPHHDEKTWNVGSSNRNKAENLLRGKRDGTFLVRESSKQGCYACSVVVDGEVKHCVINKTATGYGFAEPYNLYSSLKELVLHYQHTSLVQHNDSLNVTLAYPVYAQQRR

Regarding `C[C@H](Nc1nc(N)nc2[nH]ccc(=O)c12)c1cc2cccc(Cl)c2c(=O)n1-c1ccccc1` [Example 15, (S)-2-amino-4-((1-(8-chloro-1-oxo-2-phenyl-1,2-dihydroisoquinoline-3-yl)ethyl)amino)pyrido[2,3-d]pyrimidine-5(8H)-one], the IC50 in assay [1] was 10 to 500 nM; in assay [2] it was 10 to 500 nM; in assay [3] it was less than 10 nM; in assay [4], 10 to 500 nM.
For the molecule `Nc1nc(N2CCC[C@H]2c2cc3cccc(Cl)c3c(=O)n2-c2ccccc2)c2c(=O)cc[nH]c2n1` [Example 16, (S)-2-amino-4-(2-(8-chloro-1-oxo-2-phenyl-1,2-dihydroisoquinoline-3-yl)pyrrolidine-1-yl)pyrido[2,3-d]pyrimidine-5(8H)-one], the IC50 in assay [1] is 10 to 500 nM; in assay [2], more than 500 nM; in assay [3] it was 10 to 500 nM; in assay [4], more than 500 nM.
Consider `Cc1c[nH]c2ncnc(N[C@@H](C)c3cc4cccc(Cl)c4c(=O)n3-c3ccccc3)c2c1=O` [Example 17, (S)-4-((1-(8-chloro-1-oxo-2-phenyl-1,2-dihydroisoquinoline-3-yl)ethyl)amino)-6-methylpyrido[2,3-d]pyrimidine-5(8H)-one], for which the IC50 is 10 to 500 nM in assay [1], more than 500 nM in assay [2], 10 to 500 nM in assay [3] and more than 500 nM in assay [4].
Turning to `Cc1c[nH]c2nc(N)nc(N[C@@H](C)c3cc4cccc(Cl)c4c(=O)n3-c3ccccc3)c2c1=O` [Example 18, (S)-2-amino-4-((1-(8-chloro-1-oxo-2-phenyl-1,2-dihydroisoquinoline-3-yl)ethyl)amino)-6-methylpyrido[2,3-d]pyrimidine-5(8H)-one], the IC50 is 10 to 500 nM in assay [1], 10 to 500 nM in assay [2], less than 10 nM in assay [3] and 10 to 500 nM in assay [4].
As to `C[C@H](Nc1ncnc2[nH]cc(C#N)c(=O)c12)c1cc2cccc(Cl)c2c(=O)n1-c1ccccc1` [Example 19, (S)-4-((1-(8-chloro-1-oxo-2-phenyl-1,2-dihydroisoquinoline-3-yl)ethyl)amino)-5-oxo-5,8-dihydropyrido[2,3-d]pyrimidine-6-carbonitrile], the 50% inhibitory concentration (IC50) in assay [1], in assay [2], in assay [3] and in assay [4] was more than 500 nM throughout.
Regarding `C[C@H](Nc1ncnc2[nH]cc(F)c(=O)c12)c1cc2cccc(Cl)c2c(=O)n1-c1ccccc1` [Example 20, (S)-4-((1-(8-chloro-1-oxo-2-phenyl-1,2-dihydroisoquinoline-3-yl)ethyl)amino)-6-fluoropyrido[2,3-d]pyrimidine-5(8H)-one], the IC50 in assay [1] was 10 to 500 nM; in assay [2] it was more than 500 nM; in assay [3] it was less than 10 nM; in assay [4] it was more than 500 nM.
As to `C[C@H](Nc1ncnc2[nH]cc(F)c(=O)c12)c1nc2cccc(Cl)c2c(=O)n1-c1ccccc1` [Example 21, (S)-4-((1-(5-chloro-4-oxo-3-phenyl-3,4-dihydroquinazoline-2-yl)ethyl)amino)-6-fluoropyrido[2,3-d]pyrimidine-5(8H)-one], the concentration for half-maximal inhibition (IC50) was 10 to 500 nM in assay [1], 10 to 500 nM in assay [2], less than 10 nM in assay [3] and 10 to 500 nM in assay [4].
In the case of `C[C@H](Nc1ncnc2[nH]cc(Cl)c(=O)c12)c1nc2cccc(Cl)c2c(=O)n1-c1ccccc1` [Example 22, (S)-6-chloro-4-((1-(5-chloro-4-oxo-3-phenyl-3,4-dihydroquinazoline-2-yl)ethyl)amino)pyrido[2,3-d]pyrimidine-5(8H)-one], the IC50 in assay [1] was 10 to 500 nM; in assay [2] it was more than 500 nM; in assay [3], less than 10 nM; in assay [4], more than 500 nM.
As for `C[C@H](Nc1ncnc2[nH]cc(Cl)c(=O)c12)c1cc2cccc(Cl)c2c(=O)n1-c1ccccc1` [Example 23, (S)-6-chloro-4-((1-(8-chloro-1-oxo-2-phenyl-1,2-dihydroisoquinoline-3-yl)ethyl)amino)pyrido[2,3-d]pyrimidine-5(8H)-one], the IC50 in assay [1] is 10 to 500 nM; in assay [2] it was more than 500 nM; in assay [3], less than 10 nM; in assay [4] it was more than 500 nM.
As to `C[C@H](Nc1ncnc2[nH]cc(Cl)c(=O)c12)c1c(Cl)c2cccc(Cl)c2c(=O)n1-c1ccccc1` [Example 24, (S)-6-chloro-4-((1-(4,8-dichloro-1-oxo-2-phenyl-1,2-dihydroisoquinoline-3-yl)ethyl)amino)pyrido[2,3-d]pyrimidine-5(8H)-one], the IC50 in assay [1] was 10 to 500 nM; in assay [2], more than 500 nM; in assay [3], 10 to 500 nM; in assay [4], more than 500 nM.
On to `C[C@H](Nc1nc(N)nc2[nH]ccc(=O)c12)c1nc2ccc(F)cc2cc1-c1ccccn1` [Example 25, (S)-2-amino-4-((1-(6-fluoro-3-(pyridine-2-yl)quinoline-2-yl)ethyl)amino)pyrido[2,3-d]pyrimidine-5(8H)-one], for which the half-maximal inhibitory concentration (IC50) was less than 10 nM in assay [1], more than 500 nM in assay [2], less than 10 nM in assay [3] and more than 500 nM in assay [4].
Take `CC(Nc1ncnc2[nH]ccc(=O)c12)c1nc2ccc(F)cc2c(-c2ccccn2)c1-c1ccccn1` (centres unmarked) [Example 26, 4-((1-(6-fluoro-3,4-di(pyridine-2-yl)quinoline-2-yl)ethyl)amino)pyrido[2,3-d]pyrimidine-5(8H)-one]: the IC50 was more than 500 nM in assay [1], more than 500 nM in assay [2], 10 to 500 nM in assay [3] and more than 500 nM in assay [4].
As for `C[C@H](Nc1ncnc2[nH]ccc(=O)c12)c1nc2ccc(F)cc2c(-c2ccccn2)c1-c1ccccc1` [Example 27, (S)-4-((1-(6-fluoro-3-phenyl-4-(pyridine-2-yl)quinoline-2-yl)ethyl)amino)pyrido[2,3-d]pyrimidine-5(8H)-one], the IC50 was 10 to 500 nM in assay [1], more than 500 nM in assay [2], 10 to 500 nM in assay [3] and more than 500 nM in assay [4].
Take `C[C@H](Nc1ncnc2[nH]ccc(=O)c12)c1nc2ccc(F)cc2c(=O)n1-c1cccnc1` [Example 28, (S)-4-((1-(6-fluoro-4-oxo-3-(pyridine-3-yl)-3,4-dihydroquinazoline-2-yl)ethyl)amino)pyrido[2,3-d]pyrimidine-5(8H)-one]: the IC50 in assay [1] was more than 500 nM; in assay [2], more than 500 nM; in assay [3], 10 to 500 nM; in assay [4], more than 500 nM.
